{"source": "patent US9340532B2", "about": "“Methods and compositions for inhibiting CNKSR1” (PHUSIS THERAPEUTICS, INC., priority 2012, dated 2016)", "key": {"CNK1 PH-domain (CNKSR1)": {"target": "T1, CNK1 PH-domain (CNKSR1) (Homo sapiens, UniProt Q969H4)", "T1 construct": "The PH-domain His-fusion proteins (CNK1 and AKT1) were expressed and immobilized on a NTA chip; made in house", "T1 sequence (Q969H4 403-502 limits assumed)": "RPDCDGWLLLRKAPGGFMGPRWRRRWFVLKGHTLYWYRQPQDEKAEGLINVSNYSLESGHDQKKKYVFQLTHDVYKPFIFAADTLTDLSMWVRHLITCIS", "experiment": "SPR binding assay (Biacore T100), CNK1 PH-domain", "procedure,_shortened": "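His-tagged CNK1 PH-domain was captured on an NTA chip to ≤10,000 RU. Small-molecule analytes were injected at 50 μM to 0.010 μM at 30 μL/min, with 1-5% (v/v) DMSO in samples and running buffer. Binding was measured by surface plasmon resonance.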"}, "[1]": {"experiment": "Stability in biological media: dog plasma", "format": "in vitro ADME", "conditions": "Dog plasma (beagle), 50 μg/ml, 37° C."}, "[2]": {"tested_on": "H226 (KRAS wildtype cell line)", "experiment": "Proliferation Assay H226", "format": "cell-based", "conditions": "Homo sapiens, NCI-H226, n = 1", "procedure,_shortened": "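Cells plated 2000 per well, allowed 24 h to attach, then exposed 72 h to agents (0-100 μM for isogenic lines; 0.01 to 50 μM for the RPMI 1640/10% FBS-cultured 30-line NSCLC panel). MTS read at 490 nm after 2 h, normalized to no-cell and no-drug controls; IC50 from curve fitting.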"}, "[3]": {"target": "T2, direct binding of CNKSR1 to mut-KRAS (Homo sapiens, UniProt Q969H4)", "T2 construct": "expressed in transfected cells", "T2 sequence (Q969H4 1-720)": "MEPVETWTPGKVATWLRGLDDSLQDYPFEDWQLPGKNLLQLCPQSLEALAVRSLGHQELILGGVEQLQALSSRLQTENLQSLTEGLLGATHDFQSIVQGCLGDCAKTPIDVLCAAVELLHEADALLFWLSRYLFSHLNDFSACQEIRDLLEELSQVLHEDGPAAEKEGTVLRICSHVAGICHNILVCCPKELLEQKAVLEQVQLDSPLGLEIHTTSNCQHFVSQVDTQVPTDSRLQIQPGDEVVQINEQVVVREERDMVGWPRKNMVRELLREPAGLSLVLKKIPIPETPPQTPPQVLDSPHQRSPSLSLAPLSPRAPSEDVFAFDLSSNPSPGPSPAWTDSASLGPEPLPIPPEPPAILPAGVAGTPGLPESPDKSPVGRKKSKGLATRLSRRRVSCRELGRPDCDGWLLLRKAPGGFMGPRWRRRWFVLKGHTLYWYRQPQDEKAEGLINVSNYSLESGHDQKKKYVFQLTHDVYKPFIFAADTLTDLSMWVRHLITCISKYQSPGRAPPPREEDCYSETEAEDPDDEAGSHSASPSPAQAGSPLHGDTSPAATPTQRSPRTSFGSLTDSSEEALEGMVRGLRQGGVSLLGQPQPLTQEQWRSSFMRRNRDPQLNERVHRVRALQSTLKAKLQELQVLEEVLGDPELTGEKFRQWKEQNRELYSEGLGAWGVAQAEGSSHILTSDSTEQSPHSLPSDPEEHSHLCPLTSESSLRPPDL", "experiment": "Fluorescence lifetime imaging microscopy (FLIM)", "format": "cell-based", "conditions": "FIG. 13, FLIM", "method": "FLIM experiments were carried out using a Leica TCP SP5 inverted advanced confocal microscope system with internal photomultiplier tube (PMT) detector for TCSPC (time-correlated single-photon counting). The sample was excited with a tunable femtosecond (fs) titanium-sapphire laser with repetition rate of 80 MHz and pulse width less then 80 fs (Spectral Physics, Mai Tai BB). The wavelength used for two-photon excitation was 930 nm and the fluorescence was detected through a 525±25 nm interference filter. Images were obtained with oil-immersion objective (numerical aperture NA=1.4), a line scan speed of 400 Hz, with image size of 512×512 pixels. For FLIM analysis the pixels were reduced to 256×256. FLIM data was collected using Becker & Hickl SPC830 data and image acquisition card for TCSPC."}, "rHuman carboxyesterase 2": {"target": "T3, rHuman carboxyesterase 2 (Homo sapiens, UniProt O00748)", "T3 sequence (O00748 27-559)": "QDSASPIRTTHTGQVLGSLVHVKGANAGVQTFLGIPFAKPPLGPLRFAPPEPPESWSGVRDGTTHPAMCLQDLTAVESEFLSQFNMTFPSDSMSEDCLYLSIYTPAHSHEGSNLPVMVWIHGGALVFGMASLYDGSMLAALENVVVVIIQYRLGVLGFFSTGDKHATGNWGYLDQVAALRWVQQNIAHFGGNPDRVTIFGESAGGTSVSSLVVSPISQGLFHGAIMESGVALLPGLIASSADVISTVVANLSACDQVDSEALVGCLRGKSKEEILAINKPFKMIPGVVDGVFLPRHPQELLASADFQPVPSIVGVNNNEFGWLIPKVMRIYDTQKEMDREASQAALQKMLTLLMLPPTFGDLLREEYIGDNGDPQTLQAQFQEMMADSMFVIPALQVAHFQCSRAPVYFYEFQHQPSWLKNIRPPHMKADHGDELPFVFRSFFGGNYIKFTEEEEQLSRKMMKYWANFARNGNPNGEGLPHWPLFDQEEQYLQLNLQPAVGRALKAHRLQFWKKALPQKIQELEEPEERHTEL", "experiment": "Stability with carboxyesterase 2", "format": "in vitro ADME", "conditions": "rHuman carboxyesterase 2 24 U/ml, pH 7.4, 37° C."}, "[4]": {"experiment": "Mouse pharmacokinetics (iv)", "format": "in vivo"}}, "note": "pIC50, pKd: −log10 of the molar value."}
{"smiles": "CCOC(=O)Cc1nn(Cc2nc(-c3ccc(C)cc3)cs2)c(=O)c2ccccc12", "note": "[Compound 7]", "values": [{"measurement": "pKd", "setting": "CNK1 PH-domain (CNKSR1); Table 6, read-out: CNKS KD", "value": 5.49}, {"measurement": "Surface Plasmon Resonance CNKSR1 binding (RU max)", "setting": "CNK1 PH-domain (CNKSR1); date 11 26 13", "value": 5.019, "unit": "RU * 100/Da"}, {"measurement": "Surface Plasmon Resonance CNKSR1 stability (RU max post-injection)", "setting": "CNK1 PH-domain (CNKSR1); date 11 26 13", "value": 0.761, "unit": "RU * 100/Da"}, {"measurement": "Surface Plasmon Resonance CNKSR1 binding (RU max)", "setting": "CNK1 PH-domain (CNKSR1); date 12 09 13", "value": 0.205, "unit": "RU * 100/Da"}, {"measurement": "Surface Plasmon Resonance CNKSR1 stability (RU max post-injection)", "setting": "CNK1 PH-domain (CNKSR1); date 12 09 13", "value": 0.798, "unit": "RU * 100/Da"}, {"measurement": "Half life", "setting": "[1]", "value": 9.3, "unit": "h"}, {"measurement": "pIC50", "setting": "[2]", "value": "< 4.00"}, {"measurement": "direct binding of CNKSR1 to mut-KRAS in cells", "setting": "[3]", "value": "inhibit"}, {"measurement": "Half life", "setting": "rHuman carboxyesterase 2", "value": 1.65, "unit": "h"}, {"measurement": "t1/2β", "setting": "[4]", "value": 3, "unit": "UN min"}]}
